In US9487819B2, “Quantitative genetically encoded optical reporter construct” (Cornell University, priority 2009, dated 2016):

Experiments:
[1] = test system: [ATP] in nerve terminals of neurons; assay: Presynaptic [ATP] at rest reported by Syn-ATP under metabolic inhibitors; format: cell-based, rat; settings: resting neurons, TTX to block action potential firing (FIG. 15)
Experimental: All experiments were performed using dissociated primary hippocampal neurons according to procedures that have been previously described in Ryan T A. J. Neurosci 19:1317-1323 (1999). Briefly, hippocampi from newborn rats (P2-P4) were removed and dissected. Prior to cell dissociation, the dendate gyrus was removed leaving a relatively pure population of CA3 & CA1 excitatory neurons and interneurons. […] For fluorescence and luminescence experiments cover slips were mounted in a rapid switching low volume perfusion chamber equipped with stimulus electrodes and mounted on the stage of an inverted microscope equipped with EMCCD detection and laser-based wide-field illumination. Chemiluminescence was imaged using the same apparatus as the fluorescence, however no excitation source was used during the detection of light.
On DIV 14-25, neurons were mounted in a custom-built physiological perfusion chamber with temperature control that allows direct control of field stimulation to drive action potential firing. […] Luminescence and fluorescence imaging were performed using an EM-CCD Andor Ixon, thinned back-illuminated sensor through a 1.3 NA 40× fluar objective. Neurons expressing Syn-ATP were perfused with 20 mM luciferin, one minute prior to and throughout the period during which the luminescence images was obtained. […]

[2] = maximal number of photons emitted; cited from earlier work

O=CC[C@@H](O)[C@H](O)[C@H](O)CO [2-deoxyglucose]
change of [ATP] at rest [1]: decreases

CC[C@H]1/C=C/C=C/C[C@@H](C)[C@H](O)[C@@](C)(O)C(=O)[C@@H](C)[C@H](O)[C@@H](C)C(=O)[C@@H](C)[C@H](O)[C@@H](C)/C=C/C(=O)O[C@@H]2[C@H](C)[C@H](CC1)O[C@]1(CC[C@H](C)[C@H](C[C@@H](C)O)O1)[C@H]2C [oligomycin]
change of [ATP] at rest [1]: does not change

B1: Photonus pyralis luciferase: 62 kD firefly luciferase, SEQ ID NO: 1 (protein, listed as Photonis pyralis)
chain: MEDAKNIKKGPAPFYPLEDGTAGEQLHKAMKRYALVPGTIAFTDAHIEVDITYAEYFEMSVRLAEAMKRYGLNTNHRIVVCSENSLQFFMPVLGALFIGVAVAPANDIYNERELLNSMGISQPTVVFVSKKGLQKILNVQKKLPIIQKIIIMDSKTDYQGFQSMYTFVTSHLPPGFNEYDFVPESFDRDKTIALIMNSSGSTGLPKGVALPHRTACVRFSHARDPIFGNQIIPDTAILSVVPFHHGFGMFTTLGYLICGFRVVLMYRFEEELFLRSLQDYKIQSALLVPTLFSFFAKSTLIDKYDLSNLHEIASGGAPLSKEVGEAVAKRFHLPGIRQGYGLTETTSAILITPEGDDKPGAVGKVVPFFEAKVVDLDTGKTLGVNQRGELCVRGPMIMSGYVNNPEATNALIDKDGWLHSGDIAYWDEDEHFFIVDRLKSLIKYKGYQVAPAELESILLQHPNIFDAGVAGLPDDDAGELPAAVVVLEHGKTMTEKEIVDYVASQVTTAKKLRGGVVFVDEVPKGLTGKLDARKIREILIKAKKGGKIAV
kcat [2]: approximately 1.6 per sec
